Data reported in US20260109707A1, “HETEROBIFUNCTIONAL COMPOUNDS AND METHODS OF TREATING DISEASE” (Halda Therapeutics OpCo. Inc., priority 2022, published 2026).

How the values were obtained:
VCaP cells = assay: Cellular growth inhibition assay for VCaP cells (CellTiter-Glo, 72 hours); assay type: cell-based, human; details: Homo sapiens, VCaP, 72 h
Procedure, shortened: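 Luminescent viability signal after 72 h of compound exposure gave GI50 values by four-parameter nonlinear regression. Compounds were added in 0.5% DMSO to cells plated 24 h earlier at 5000/well in DMEM containing 10% FBS.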

androgen receptor = target: T1, androgen receptor (Homo sapiens, UniProt P10275); assay: Assay for binding affinity to androgen receptor ([3H]methyltrienolone radioligand, cell cytosol); details: binding to the androgen receptor, Table 3
T1 sequence (P10275 1-920 T878A): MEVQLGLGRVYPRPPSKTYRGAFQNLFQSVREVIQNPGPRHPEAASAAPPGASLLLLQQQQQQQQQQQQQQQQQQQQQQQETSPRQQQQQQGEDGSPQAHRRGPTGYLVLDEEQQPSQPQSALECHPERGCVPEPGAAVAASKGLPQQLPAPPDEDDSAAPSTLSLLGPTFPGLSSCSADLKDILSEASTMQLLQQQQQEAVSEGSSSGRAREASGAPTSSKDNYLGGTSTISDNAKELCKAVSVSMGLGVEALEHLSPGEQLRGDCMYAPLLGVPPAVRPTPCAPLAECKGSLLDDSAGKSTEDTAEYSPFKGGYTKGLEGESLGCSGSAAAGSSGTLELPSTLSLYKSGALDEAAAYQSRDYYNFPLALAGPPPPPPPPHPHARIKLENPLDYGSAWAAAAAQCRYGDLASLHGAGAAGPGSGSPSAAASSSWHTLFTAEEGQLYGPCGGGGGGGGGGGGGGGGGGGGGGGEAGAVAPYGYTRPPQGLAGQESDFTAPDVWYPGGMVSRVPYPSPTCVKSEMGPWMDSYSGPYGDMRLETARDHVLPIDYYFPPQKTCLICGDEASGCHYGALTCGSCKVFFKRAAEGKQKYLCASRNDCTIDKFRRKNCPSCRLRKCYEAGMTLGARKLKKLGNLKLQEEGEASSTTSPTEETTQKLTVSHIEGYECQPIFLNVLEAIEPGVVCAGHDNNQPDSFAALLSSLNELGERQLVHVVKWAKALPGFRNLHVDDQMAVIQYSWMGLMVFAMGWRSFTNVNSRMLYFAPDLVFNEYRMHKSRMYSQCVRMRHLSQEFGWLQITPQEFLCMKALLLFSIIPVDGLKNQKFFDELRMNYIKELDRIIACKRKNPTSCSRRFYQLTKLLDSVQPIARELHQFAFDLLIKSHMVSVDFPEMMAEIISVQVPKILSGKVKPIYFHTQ
Procedure: Fractions of cell cytosol ([…]) were incubated for 24 hr at 4° C. with 1 nM [^3H]methyltrienolone in the absence or presence of the test compound in a buffer containing 25 mM Hepes-Tris (pH 7.4), 1 mM EDTA, 10 mM Na2MoO4, 2 mM DTT, 5 μM triamcinolone acetonide, and 10% glycerol. Nonspecific binding was determined in the presence of […] testosterone. Following incubation, the samples were filtered rapidly under vacuum through glass fiber filters (GF/B, Packard) presoaked with 0.3% PEI and rinsed several times with ice-cold 50 mM Tris-HCl using a 96-sample cell harvester (Unifilter, Packard). The filters were dried then counted for radioactivity in a scintillation counter (Topcount, Packard) using a scintillation cocktail (Microscint 0, Packard). The results are expressed as a percent inhibition of the control radioligand specific binding. The standard reference compound is testosterone, which is tested in each experiment at several concentrations to obtain a competition curve from which its IC50 is calculated.

| SMILES | GI50 (VCaP cells) [nM] | Kd (androgen receptor) [nM] |
| --- | --- | --- |
| CCNC(=O)C[C@@H]1N=C(c2ccc(CCCOC3CCN(c4ccc(C(=O)N[C@H]5CC[C@H](Oc6ccc(C#N)c(Cl)c6)CC5)nn4)CC3)cc2)c2c(sc(C)c2C)-n2c(C)nnc21 [I-17] | < 500 |  |
| CCNC(=O)C[C@@H]1N=C(c2ccc(CC3CCN(c4ccc(C(=O)N[C@H]5CC[C@H](Oc6ccc(C#N)c(Cl)c6)CC5)nn4)CC3)cc2)c2c(sc(C)c2C)-n2c(C)nnc21 [I-20] | < 500 | < 50 |
| CCNC(=O)C[C@@H]1N=C(c2ccc(N3CC4(C3)CN(c3ccc(C(=O)N[C@H]5CC[C@H](Oc6ccc(C#N)c(Cl)c6)CC5)nn3)C4)cc2)c2c(sc(C)c2C)-n2c(C)nnc21 [I-24] | < 500 | < 50 |
| CCNC(=O)C[C@@H]1N=C(c2ccc(OCC3CN(c4ccc(C(=O)N[C@H]5CC[C@H](Oc6ccc(C#N)c(Cl)c6)CC5)nn4)C3)cc2)c2c(sc(C)c2C)-n2c(C)nnc21 [I-29] | < 500 | < 50 |
| CCNC(=O)C[C@@H]1N=C(c2ccc(N3CCC(OC4CCN(c5ccc(C(=O)N[C@H]6CC[C@H](Oc7ccc(C#N)c(Cl)c7)CC6)nn5)CC4)CC3)cc2)c2c(sc(C)c2C)-n2c(C)nnc21 [I-44] | < 500 | < 50 |
| CCNC(=O)C[C@@H]1N=C(c2ccc(OCCCN(C)c3ccc(C(=O)N[C@H]4CC[C@H](Oc5ccc(C#N)c(Cl)c5)CC4)nn3)cc2)c2c(sc(C)c2C)-n2c(C)nnc21 [I-48] | < 500 | < 50 |

More lines, now with the values ahead:

| GI50 (VCaP cells) [nM] | Kd (androgen receptor) [nM] | SMILES |
| --- | --- | --- |
| < 500 | < 50 | Cc1sc2c(c1C)C(c1ccc(Cl)cc1)=N[C@@H](CC(=O)NCCOC1CCN(c3ccc(C(=O)N[C@H]4CC[C@H](Oc5ccc(C#N)c(Cl)c5)CC4)nn3)CC1)c1nnc(C)n1-2 [I-1, N-[4-(3-chloro-4-cyano-phenoxy)cyclohexyl]-6-[4-[2-[[2-[(9S)-7-(4-chlorophenyl)-4,5,13-trimethyl-3-thia-1,8,11,12-tetrazatricyclo[8.3.0.0^2,6]trideca-2(6),4,7,10,12-pentaen-9-yl]acetyl]amino]ethoxy]-1-piperidyl]pyridazine-3-carboxamide] |
| < 500 | < 50 | Cc1sc2c(c1C)C(c1ccc(Cl)cc1)=N[C@@H](CC(=O)NCCOCCOCCOC1CCN(c3ccc(C(=O)N[C@H]4CC[C@H](Oc5ccc(C#N)c(Cl)c5)CC4)nn3)CC1)c1nnc(C)n1-2 [I-2, N-[4-(3-chloro-4-cyano-phenoxy)cyclohexyl]-6-[4-[2-[2-[2-[[2-[(9S)-7-(4-chlorophenyl)-4,5,13-trimethyl-3-thia-1,8,11,12-tetrazatricyclo[8.3.0.0^2,6]trideca-2(6),4,7,10,12-pentaen-9-yl]acetyl]amino]ethoxy]ethoxy]ethoxy]-1-piperidyl]pyridazine-3-carboxamide] |
| < 500 | < 50 | CCNC(=O)C[C@@H]1N=C(c2ccc(OCCOC3CCN(c4ccc(C(=O)N[C@H]5CC[C@H](Oc6ccc(C#N)c(Cl)c6)CC5)nn4)CC3)cc2)c2c(sc(C)c2C)-n2c(C)nnc21 [I-8] |
| < 500 | < 50 | CCNC(=O)C[C@@H]1N=C(c2ccc(OCCOCCOC3CCN(c4ccc(C(=O)N[C@H]5CC[C@H](Oc6ccc(C#N)c(Cl)c6)CC5)nn4)CC3)cc2)c2c(sc(C)c2C)-n2c(C)nnc21 [I-10] |
